Experiments:
mice (C57BL/6) = assay: Forced swimming test (FST); assay type: in vivo, mouse; conditions: C57BL/6 mice, oral; DCS alone 10 mg/kg, pentoxifylline alone 80 mg/kg, combination DCS 10 mg/kg + pentoxifylline 10, 20, 80, 160 mg/kg; FST an hour after administration; immobility time in last 4 min of 6 min
Procedure: In order to test an effect of reducing depression depending on administration of the composite composition of the present invention, mice were performed to a forced swimming test (FST). The FST, which is to measure a coping strategy for acute stress that inevitably occurs, is an animal behavioral experiment commonly used to measure antidepressant effects. To confirm the effect of reducing depression by combined administration of D-cycloserine (DCS) and pentoxifylline (Pen), each group of mice was administered orally with the vehicle (DW 5 ml/kg), DCS (administered alone at 10 mg/kg), pentoxifylline (administered alone at 80 mg/kg) and DCS+pentoxifylline (DCS 10 mg/kg and pentoxifylline 10, 20, 80, 160 mg/kg combination treatment group). After administration, the forced swimming test (FST) that measures depression-like behavior was performed on the mice. Specifically, each mice group (C57BL/6) was individually placed in a 3 L Pyrex beaker (13 cm in diameter, 24 cm in height), and the beakers were filled with 26° C. of water up to a depth of 9 cm. All mice were forced to swim for 6 minutes, and immobility time was measured for the last 4 minutes of the experiment. The immobility time is defined as the […] time taken while the mouse is floating without struggling or taking only the movement required for keeping the mouse's head above the water surface.

mice (C57BL6) = assay: Tail suspension test (TST); assay type: in vivo, mouse; conditions: DCS alone 10 mg/kg, pentoxifylline alone 80 mg/kg, combination DCS 10 mg/kg + pentoxifylline 10, 20, 80, 160 mg/kg, TST 1 hour after administration, immobility time over 6 min
Text: In order to test an effect of reducing depression depending on administration of the composite composition of the present invention, mice were subjected to a tail suspension test (TST). The TST, which is to measure a stress in a rodent animal model, is based on the behavior of an experimental animal facing immobile posture in the face of short-term, irreversible stress. In the technical field of the present invention, the TST is used to measure the effect of antidepressant. To confirm the effect of reducing depression by combined administration of D-cycloserine (DCS) and pentoxifylline (Pen), DCS, Pen alone or a composite composition were administered to all groups of mice (C57BL6). Each group of mice was administered with the vehicle (DW 5 ml/kg), DCS (administered alone at 10 mg/kg), pentoxifylline (administered alone at 80 mg/kg), and DCS+pentoxifylline (DCS 10 mg/kg and pentoxifylline 10, 20, 80, 160 mg/kg combination treatment group). After 1 hour, the tail suspension test (TST) that measures depression-like behavior was performed on the mice. […] The experiment started as soon as the mouse was hung, and the immobility time was measured for 6 minutes after the start of the experiment. […]

| SMILES | immobility in FST compared to the control group administered with the vehicle (mice (C57BL/6)) | immobility in TST compared to the control group administered with the vehicle (mice (C57BL6)) |
| --- | --- | --- |
| CC(=O)CCCCn1c(=O)c2c(ncn2C)n(C)c1=O [pentoxifylline] | did not show significantly different in immobility | did not show statistical significance |
| N[C@@H]1CONC1=O [DCS, D-cycloserine] | did not show significantly different in immobility | did not show statistical significance |
